Measured values: US7919493B2, “Anititumoral ecteinascidin derivatives” (Pharma Mar, S.A., priority 2001, dated 2011)

Tests used:
Type in all cases: cell-based
[1] = system: HT29; test: Cytotoxic assay, sulforhodamine B (SRB), HT29; details: Homo sapiens, HT-29; HT29 cells, 48 hours exposure, SRB method
From the text: (§1) A colorimetric type of assay, using sulforhodamine B (SRB) reaction has been adapted for a quantitative measurement of cell growth and viability (following the technique described by Skehan P et al. J. Natl. Cancer Inst. 1990, 82, 1107-1112).
(§2) This form of assay employs 96-well cell culture microplates of 9 mm diameter (Faircloth et al. Methods in cell science, 1988, 11(4), 201-205; Mosmann et al, Journal of. Immunological. Methods, 1983, 65(1-2), 55-63). Most of the cell lines are obtained from American Type Culture Collection (ATCC) derived from different human cancer types. Cells are maintained in RPMI 1640 10% FBS, supplemented with 0.1 g/L penicillin and 0.1 g/l streptomycin sulfate and then incubated at 37° C., 5% CO2 and 98% humidity. For the experiments, cells were harvested from subconfluent cultures using trypsin and resuspended in fresh medium before counting and plating.
(§3) Cells were seeded in 96 well microtiter plates at 5×10^3 cells per well in aliquots of 195 μL medium, and allowed to attach to the plate surface for 18 hours in drug free medium. Afterwards, samples are in aliquots of 5 μL in a ranging from 10 to 10-8 μg/mL dissolved in DMSO/ETOH (0.2% in PS buffer). After 48 hours exposure, the antitumor effect are measured by the SRB method: cells are fixed by adding 50 μL of cold 50% (w/v) trichloroacetic acid and incubating for 60 minutes at 4° C. Plates are washed with deionised water and dried. 100 μL of SRB solution (0.4% w/v in 1% acetic acid) is added to each microtiter well and incubated for 10 minutes at room temperature. Unbound SRB is removed by washing with 1% acetic acid. Plates are air-dried and bound stain is solubilized with Tris Buffer. Optical densities are read on an automated spectrophotometric plate reader at a single wavelength of 490 nm.
(§4) The values for mean ±SD of data from triplicate wells are calculated. GI50 (concentration that produces 50% growth inhibition) parameter was calculated (NCI algorithm) by automatic interpolation.

[2] = system: A549; test: Cytotoxic assay, sulforhodamine B (SRB), A549; details: Homo sapiens; A549 cells, 48 hours exposure, SRB method
From the text: as §1, §2, §3, §4

[3] = system: MEL-28; test: Cytotoxic assay, sulforhodamine B (SRB), MEL-28; details: Homo sapiens, SK-MEL-28; MEL-28 cells, 48 hours exposure, SRB method
From the text: as §1, §2, §3, §4

[4] = system: DU-14S; test: Cytotoxic assay, sulforhodamine B (SRB), DU-14S; details: Homo sapiens; DU-14S cells, 48 hours exposure, SRB method
From the text: as §1, §2, §3, §4

Row | SMILES | GI50 [1] | GI50 [2] | GI50 [3] | GI50 [4]
1 | COc1c(C)cc2c(c1O)[C@@H]1[C@@H]3[C@@H]4SC[C@H](NC(=O)c5cc6ccccc6oc5=O)C(=O)OC[C@@H](c5c6c(c(C)c(OC(C)=O)c54)OCO6)N3[C@@H](C#N)[C@H](C2)N1C [Compound 15a] | 4.38 nM | 2.83 nM | 3.23 nM | 4.38 nM
2 | COc1c(C)cc2c(c1O)[C@@H]1[C@@H]3[C@@H]4SC[C@H](NC(=O)[C@@H]5CCCN5C(=O)OC(C)(C)C)C(=O)OC[C@@H](c5c6c(c(C)c(OC(C)=O)c54)OCO6)N3[C@@H](C#N)[C@H](C2)N1C [Compound 15b] | 3.66 nM | 7.32 nM |  | 
3 | COc1c(C)cc2c(c1O)[C@@H]1[C@@H]3[C@@H]4SC[C@H](NC(=O)c5cccnc5Cl)C(=O)OC[C@@H](c5c6c(c(C)c(OC(C)=O)c54)OCO6)N3[C@@H](C#N)[C@H](C2)N1C [Compound 15c] | 2.93 nM | 1.8 nM | 1.21 nM | 0.468 nM
4 | COc1c(C)cc2c(c1O)[C@@H]1[C@@H]3[C@@H]4SC[C@H](NC(=O)c5cnn(-c6ccccc6)c5C(F)(F)F)C(=O)OC[C@@H](c5c6c(c(C)c(OC(C)=O)c54)OCO6)N3[C@@H](C#N)[C@H](C2)N1C [Compound 15d] | 10.1 nM | 14.6 nM |  | 
5 | COc1c(C)cc2c(c1O)[C@@H]1[C@@H]3[C@@H]4SC[C@H](NC(=O)c5cc(C)on5)C(=O)OC[C@@H](c5c6c(c(C)c(OC(C)=O)c54)OCO6)N3[C@@H](C#N)[C@H](C2)N1C [Compound 15e] | 5.36 nM | 5.77 nM | 2.58 nM | 3.84 nM
6 | COc1c(C)cc2c(c1O)[C@@H]1[C@@H]3[C@@H]4SC[C@H](NC(=O)[C@@H]5CCCN5)C(=O)OC[C@@H](c5c6c(c(C)c(OC(C)=O)c54)OCO6)N3[C@@H](C#N)[C@H](C2)N1C [Compound 15f] | 0.278 nM | 2.78 nM |  | 
7 | COc1c(C)cc2c(c1O)[C@@H]1[C@@H]3[C@@H]4SC[C@H](NC(=O)c5cc6ccccc6oc5=O)C(=O)OC[C@@H](c5c6c(c(C)c(OC(C)=O)c54)OCO6)N3[C@@H](O)[C@H](C2)N1C [Compound 16a] | 3.94 nM | 2.94 nM | 3.02 nM | 4.73 nM
8 | COc1c(C)cc2c(c1O)[C@@H]1[C@@H]3[C@@H]4SC[C@H](NC(=O)[C@@H]5CCCN5C(=O)OC(C)(C)C)C(=O)OC[C@@H](c5c6c(c(C)c(OC(C)=O)c54)OCO6)N3[C@@H](O)[C@H](C2)N1C [Compound 16b] | 1.23 nM | 1.23 nM | 1.11 nM | 0.37 nM
9 | COc1c(C)cc2c(c1O)[C@@H]1[C@@H]3[C@@H]4SC[C@H](NC(=O)[C@@H]5CCCN5)C(=O)OC[C@@H](c5c6c(c(C)c(OC(C)=O)c54)OCO6)N3[C@@H](O)[C@H](C2)N1C [Compound 16c] | 0.0422 nM | 5.63 nM | 0.281 nM | 1.13 nM
10 | COc1c(C)cc2c(c1O)[C@@H]1[C@@H]3[C@@H]4SC[C@H](NC(=O)c5cccnc5Cl)C(=O)OC[C@@H](c5c6c(c(C)c(OC(C)=O)c54)OCO6)N3[C@@H](O)[C@H](C2)N1C [Compound 16d] | 13300 nM | 1330 nM | 2.5 nM | 2.16 nM
11 | COc1c(C)cc2c(c1O)[C@@H]1[C@@H]3[C@@H]4SC[C@H](NC(=O)c5cnn(-c6ccccc6)c5C(F)(F)F)C(=O)OC[C@@H](c5c6c(c(C)c(OC(C)=O)c54)OCO6)N3[C@@H](O)[C@H](C2)N1C [Compound 16e] | 38.6 nM | 35.1 nM | 29.8 nM | 27.2 nM
12 | COc1c(C)cc2c(c1O)[C@@H]1[C@@H]3[C@@H]4SC[C@H](NC(=O)c5cc(C)on5)C(=O)OC[C@@H](c5c6c(c(C)c(OC(C)=O)c54)OCO6)N3[C@@H](O)[C@H](C2)N1C [Compound 16f] | 4.3 nM | 3.47 nM | 5.13 nM | 3.4 nM
